In patent US7192906B2, “Substituted pyrazole derivatives, production process thereof, and herbicide compositions containing the derivatives” (SDS Biotech K.K., priority 2001, dated 2007):

Legend:
Type in all cases: in vivo
[1] = system: Chenopodium album; experiment: Test Example 1 upland field foliage treatment; details: Table 4, upland field foliage treatment, index 0-5
Summary of the method: (§1)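 Seeds sown in upland soil in pots and covered with about 1 cm soil; on day 14 after sowing, diluted wettable powder applied uniformly to leaves at 1 kg active ingredient per hectare. Weed control or crop phytotoxicity scored visually 21 days after application on a 0–5 scale (5 = ≥90%, 0 = <10%).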

[2] = system: Digitaria adscendens; experiment: Test Example 1 upland field foliage treatment; details: Table 4, upland field foliage treatment, index 0-5
Summary of the method: as §1

[3] = system: Setaria viridis; experiment: Test Example 1 upland field foliage treatment; details: Table 4, upland field foliage treatment, index 0-5
Summary of the method: as §1

[4] = system: Stellaria media; experiment: Test Example 1 upland field foliage treatment; details: Table 4, upland field foliage treatment, index 0-5
Summary of the method: as §1

[5] = system: soybean (Glycine max); experiment: Test Example 1 upland field foliage treatment, crop phytotoxicity; details: Table 4, upland field foliage treatment, index 0-5
Summary of the method: as §1

[6] = system: wheat (Triticum aestivum); experiment: as above; details: Table 4, upland field foliage treatment, index 0-5
Summary of the method: as §1

[7] = system: Chenopodium album; experiment: Test Example 2 upland soil treatment; details: Table 5, upland soil treatment, index 0-5
Summary of the method: (§2)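 Score 0–5 read at day 21 (5 = ≥90% effect or phytotoxicity, 0 = <10%). Wettable powder diluted in water to 1 kg a.i./ha, applied uniformly to upland soil one day after sowing; seeds covered with ~1 cm soil.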

[8] = system: Digitaria adscendens; experiment: Test Example 2 upland soil treatment; details: Table 5, upland soil treatment, index 0-5
Summary of the method: as §2

[9] = system: Setaria viridis; experiment: Test Example 2 upland soil treatment; details: Table 5, upland soil treatment, index 0-5
Summary of the method: as §2

[10] = system: Stellaria media; experiment: Test Example 2 upland soil treatment; details: Table 5, upland soil treatment, index 0-5
Summary of the method: as §2

[11] = system: soybean (Glycine max); experiment: Test Example 2 upland soil treatment, crop phytotoxicity; details: Table 5, upland soil treatment, index 0-5
Summary of the method: as §2

[12] = system: wheat (Triticum aestivum); experiment: as above; details: Table 5, upland soil treatment, index 0-5
Summary of the method: as §2

[13] = system: Ammannia multiflora; experiment: Test Example 3 paddy field treatment; details: paddy field treatment, wettable powder, active ingredient 1 kg per hectare, 21st day after the dropping, index 0-5
Summary of the method: (§3)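 Weed seeds sown in puddled paddy soil under 4 cm water, with two-leaf Koshihikari rice transplanted; 10 days later a wettable powder was applied to the water surface at 1 kg active ingredient/ha. Scored 21 days after application on a 0–5 scale (0 = <10%, 5 = ≥90% herbicidal effect or phytotoxicity).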

[14] = system: Echinochloa crusgalli; experiment: Test Example 3 paddy field treatment; details: paddy field treatment, wettable powder, active ingredient 1 kg per hectare, 21st day after the dropping, index 0-5
Summary of the method: as §3

[15] = system: Monochoria vaginalis; experiment: Test Example 3 paddy field treatment; details: paddy field treatment, wettable powder, active ingredient 1 kg per hectare, 21st day after the dropping, index 0-5
Summary of the method: as §3

[16] = system: Scirpus juncoides; experiment: Test Example 3 paddy field treatment; details: paddy field treatment, wettable powder, active ingredient 1 kg per hectare, 21st day after the dropping, index 0-5
Summary of the method: as §3

[17] = system: Rice (Oryza sativa); experiment: Test Example 3 paddy field treatment, crop phytotoxicity; details: paddy field treatment, transplanted rice Koshihikari, wettable powder, active ingredient 1 kg per hectare, 21st day after the dropping, index 0-5
Summary of the method: as §3

SMILES	Herbicidal activity CA: Chenopodium album [1]	Herbicidal activity DA: Digitaria adscendens [2]	Herbicidal activity SV: Setaria viridis [3]	Herbicidal activity SM: Stellaria media [4]	Herbicidal activity (phytotoxicity) GM: Soybean (Glycine max) [5]	Herbicidal activity (phytotoxicity) TA: Wheat (Triticum aestivum) [6]	Herbicidal activity CA: Chenopodium album [7]	Herbicidal activity DA: Digitaria adscendens [8]	Herbicidal activity SV: Setaria viridis [9]	Herbicidal activity SM: Stellaria media [10]	Herbicidal activity (phytotoxicity) GM: Soybean (Glycine max) [11]	Herbicidal activity (phytotoxicity) TA: Wheat (Triticum aestivum) [12]	Herbicidal activity AM [13]	Herbicidal activity EC [14]	Herbicidal activity MV [15]	Herbicidal activity SJ [16]	Herbicidal activity OS (phytotoxicity to rice) [17]
CON=C(Cn1cc(C)c(-c2ccccc2)n1)C(=O)NC1CCCCC1 [Compound 24]	4 (herbicidal effect of not less than 70% and less than 90%, or phytotoxicity of 70% or more and less than 90%)	3 (herbicidal effect of not less than 50% and less than 70%, or phytotoxicity of 50% or more and less than 70%)	4 (herbicidal effect of not less than 70% and less than 90%, or phytotoxicity of 70% or more and less than 90%)	4 (herbicidal effect of not less than 70% and less than 90%, or phytotoxicity of 70% or more and less than 90%)	0 (herbicidal effect of not less than 0% and less than 10%, or phytotoxicity of 0% or more and less than 10%)	0 (herbicidal effect of not less than 0% and less than 10%, or phytotoxicity of 0% or more and less than 10%)	5 (herbicidal effect of not less than 90%, or phytotoxicity of 90% or more)	3 (herbicidal effect of not less than 50% and less than 70%, or phytotoxicity of 50% or more and less than 70%)	4 (herbicidal effect of not less than 70% and less than 90%, or phytotoxicity of 70% or more and less than 90%)	4 (herbicidal effect of not less than 70% and less than 90%, or phytotoxicity of 70% or more and less than 90%)	0 (herbicidal effect of not less than 0% and less than 10%, or phytotoxicity of 0% or more and less than 10%)	0 (herbicidal effect of not less than 0% and less than 10%, or phytotoxicity of 0% or more and less than 10%)	4 (herbicidal effect of not less than 70% and less than 90%, or phytotoxicity of 70% or more and less than 90%)	4 (herbicidal effect of not less than 70% and less than 90%, or phytotoxicity of 70% or more and less than 90%)	5 (herbicidal effect of not less than 90%, or phytotoxicity of 90% or more)	4 (herbicidal effect of not less than 70% and less than 90%, or phytotoxicity of 70% or more and less than 90%)	0 (herbicidal effect of not less than 0% and less than 10%, or phytotoxicity of 0% or more and less than 10%)
C=CCNC(=O)C(Cn1cc(C)c(-c2ccccc2)n1)=NOC [Compound 26]	5 (herbicidal effect of not less than 90%, or phytotoxicity of 90% or more)	5 (herbicidal effect of not less than 90%, or phytotoxicity of 90% or more)	4 (herbicidal effect of not less than 70% and less than 90%, or phytotoxicity of 70% or more and less than 90%)	5 (herbicidal effect of not less than 90%, or phytotoxicity of 90% or more)	0 (herbicidal effect of not less than 0% and less than 10%, or phytotoxicity of 0% or more and less than 10%)	0 (herbicidal effect of not less than 0% and less than 10%, or phytotoxicity of 0% or more and less than 10%)	5 (herbicidal effect of not less than 90%, or phytotoxicity of 90% or more)	5 (herbicidal effect of not less than 90%, or phytotoxicity of 90% or more)	4 (herbicidal effect of not less than 70% and less than 90%, or phytotoxicity of 70% or more and less than 90%)	5 (herbicidal effect of not less than 90%, or phytotoxicity of 90% or more)	0 (herbicidal effect of not less than 0% and less than 10%, or phytotoxicity of 0% or more and less than 10%)	0 (herbicidal effect of not less than 0% and less than 10%, or phytotoxicity of 0% or more and less than 10%)	5 (herbicidal effect of not less than 90%, or phytotoxicity of 90% or more)	5 (herbicidal effect of not less than 90%, or phytotoxicity of 90% or more)	5 (herbicidal effect of not less than 90%, or phytotoxicity of 90% or more)	5 (herbicidal effect of not less than 90%, or phytotoxicity of 90% or more)	0 (herbicidal effect of not less than 0% and less than 10%, or phytotoxicity of 0% or more and less than 10%)
C#CCNC(=O)C(Cn1cc(C)c(-c2ccccc2)n1)=NOC [Compound 27]	5 (herbicidal effect of not less than 90%, or phytotoxicity of 90% or more)	5 (herbicidal effect of not less than 90%, or phytotoxicity of 90% or more)	5 (herbicidal effect of not less than 90%, or phytotoxicity of 90% or more)	5 (herbicidal effect of not less than 90%, or phytotoxicity of 90% or more)	0 (herbicidal effect of not less than 0% and less than 10%, or phytotoxicity of 0% or more and less than 10%)	0 (herbicidal effect of not less than 0% and less than 10%, or phytotoxicity of 0% or more and less than 10%)	5 (herbicidal effect of not less than 90%, or phytotoxicity of 90% or more)	5 (herbicidal effect of not less than 90%, or phytotoxicity of 90% or more)	5 (herbicidal effect of not less than 90%, or phytotoxicity of 90% or more)	5 (herbicidal effect of not less than 90%, or phytotoxicity of 90% or more)	1 (herbicidal effect of not less than 10% and less than 30%, or phytotoxicity of 10% or more and less than 30%)	0 (herbicidal effect of not less than 0% and less than 10%, or phytotoxicity of 0% or more and less than 10%)	5 (herbicidal effect of not less than 90%, or phytotoxicity of 90% or more)	5 (herbicidal effect of not less than 90%, or phytotoxicity of 90% or more)	5 (herbicidal effect of not less than 90%, or phytotoxicity of 90% or more)	5 (herbicidal effect of not less than 90%, or phytotoxicity of 90% or more)	0 (herbicidal effect of not less than 0% and less than 10%, or phytotoxicity of 0% or more and less than 10%)
CON=C(Cn1cc(C)c(-c2ccccc2)n1)C(=O)NCc1ccccc1 [Compound 30]	4 (herbicidal effect of not less than 70% and less than 90%, or phytotoxicity of 70% or more and less than 90%)	4 (herbicidal effect of not less than 70% and less than 90%, or phytotoxicity of 70% or more and less than 90%)	3 (herbicidal effect of not less than 50% and less than 70%, or phytotoxicity of 50% or more and less than 70%)	3 (herbicidal effect of not less than 50% and less than 70%, or phytotoxicity of 50% or more and less than 70%)	0 (herbicidal effect of not less than 0% and less than 10%, or phytotoxicity of 0% or more and less than 10%)	0 (herbicidal effect of not less than 0% and less than 10%, or phytotoxicity of 0% or more and less than 10%)	4 (herbicidal effect of not less than 70% and less than 90%, or phytotoxicity of 70% or more and less than 90%)	3 (herbicidal effect of not less than 50% and less than 70%, or phytotoxicity of 50% or more and less than 70%)	4 (herbicidal effect of not less than 70% and less than 90%, or phytotoxicity of 70% or more and less than 90%)	3 (herbicidal effect of not less than 50% and less than 70%, or phytotoxicity of 50% or more and less than 70%)	0 (herbicidal effect of not less than 0% and less than 10%, or phytotoxicity of 0% or more and less than 10%)	0 (herbicidal effect of not less than 0% and less than 10%, or phytotoxicity of 0% or more and less than 10%)	4 (herbicidal effect of not less than 70% and less than 90%, or phytotoxicity of 70% or more and less than 90%)	4 (herbicidal effect of not less than 70% and less than 90%, or phytotoxicity of 70% or more and less than 90%)	5 (herbicidal effect of not less than 90%, or phytotoxicity of 90% or more)	4 (herbicidal effect of not less than 70% and less than 90%, or phytotoxicity of 70% or more and less than 90%)	0 (herbicidal effect of not less than 0% and less than 10%, or phytotoxicity of 0% or more and less than 10%)
